These results are taken from patent publication US4435391A, “Dibenzoxazepine derivative, and pharmaceutical composition comprising the same” (Chugai Seiyaku Kabushiki Kaisha, priority 1980, dated 1984).

Experiment [1] concerns level of blood sugar (BG). Description: Blood sugar (BG) level in alloxan-treated mice (Experiment 1). Format: in vivo, male mice of ddY strain. The settings on record: Table 1, 300 mg/kg orally, 22 h after alloxan 75 mg/kg i.v., blood drawn 48 h after alloxan, vs untreated mice. The protocol:
(§1) Male mice of ddY strain weighing between 25 and 30 g were divided into groups of 10 members each and administered intravenously 75 mg/kg of alloxan. Twenty-two hours later, each mouse was administered orally 300 mg/kg of a test compound of this invention as suspended in 1% gum arabic. […] The lipid peroxide level (TBA) of blood was determined with Lipoperoxide-Test Wako (Wako Pure Chemical Industries, Ltd., Japan). The level of blood sugar (BG) was determined with New Blood Sugar Test (Berlinger Mannheim AG., West Germany). […] As a positive control, tocopherol was used.

In experiment [2] the test system is triglyuride (TG) level of plasma. Description: Plasma triglyceride (TG) in Triton-injected mice (Experiment 2). Format: in vivo, mice of ddY strain. The settings on record: Table 2, 150 mg/kg immediately and 8 hours after Triton WR-1399 500 mg/kg i.v., blood drawn 24 h after Triton. The protocol: (§2) The mice of ddY strain weighing between 25 and 30 g were fasted overnight and then Triton WR-1399(500 mg/kg) (Ruger Chemicals Co.) was intravenously injected into the mice. Immediately and 8 hours after the injection, each mouse was administered 150 mg/kg of a test compound of this invention as suspended in 1% aqueous methylcellulose.
(§3) 24 Hours after the injection of Triton, the blood was drawn from the heart. The cholesterol (TC) and triglyuride (TG) levels of plasma were determined with RaBASuper (Chugai Seiyaku K.K., Japan).
(§4) As a positive control, chlofibrate were used.

For experiment [3], the system named is cholesterol (TC) level of plasma. As to the kind of experiment: Plasma cholesterol (TC) in Triton-injected mice (Experiment 2). It counts as in vivo, mice of ddY strain. The settings on record: Table 2, 150 mg/kg immediately and 8 hours after Triton WR-1399 500 mg/kg i.v., blood drawn 24 h after Triton. How it is done:
as §2, §3, §4

Experiment [4] relates to platelets (platelet rich plasma). As to the kind of experiment: Inhibition of platelet aggregation in platelet rich plasma (Experiment 3). Format: cell-based, SD strain rats. The following applies: Table 3 (own numbering), compound 1×10^-4 M. How it is done:
Platelet rich plasma samples were prepared from the blood of SD strain rats, and to 0.5 ml of the samples, test compounds in the form of a solution in dimethyl sulfoxide (DMSO) were added in such an amount that the concentration of the compounds in the mixture was 1×10^-4 M. The assay media containing aspirin were used as a control. After incubation for one minute, arachidonic acid, collagen and adenosine diphosphate (ADP) were added to the mixture in concentrations of 1×10^-4 M, 1.5×10^-3 M and 1×10^-6 M, respectively, to aggregate the platelets. The aggregation level was determined with an aggregometer. CORNING-EEL MODEL 16P (Manufactured by Evans Electro Selenium Ltd.) and the percent inhibition of platelets was calculated from the following equation: [formula]

Experiment [5] relates to lipid peroxide level (TBA) of blood. As to the kind of experiment: Lipid peroxide (TBA) level of blood in alloxan-treated mice (Experiment 1). Format: in vivo, male mice of ddY strain. The following applies: Table 1, 300 mg/kg orally, 22 h after alloxan 75 mg/kg i.v., blood drawn 48 h after alloxan, vs untreated mice. How it is done:
as §1

Regarding “ethyl 4-methoxydibenz[b,f][1,4]oxazepine-8-carboxylate [Compound 6 (Table 3)]”, the “Percent Reduction BG (x ± S.E.)” value in experiment [1] (listed as 1) was 15.5%; in experiment [1] (listed as 2), 22.4%. Moreover, the “Percent Reduction TG (x ± S.E.)” value in experiment [2] (listed as 1) came to 20.8%; in experiment [2] (listed as 2) it was 23.5%. In addition, the “Percent Reduction TC (x ± S.E.)” value in experiment [3] (listed as 1) worked out at 19.3%; in experiment [3] (listed as 2), 21.4%. For the same substance, in experiment [4] (aggregation by ADP 1×10^-6 M), the “Percent Inhibition of Aggregation, ADP” value is 20%. The “Percent Inhibition of Aggregation, Arachidonic acid” value in experiment [4] (aggregation by arachidonic acid 1×10^-4 M) was determined as 40%. In addition, the “Percent Inhibition of Aggregation, Collagen” value in experiment [4] (aggregation by collagen 1.5×10^-3 M) is on record as 25%. For the same substance, the “Percent Reduction TBA (x ± S.E.)” value in experiment [5] (listed as 1) amounted to 12.3%; in experiment [5] (listed as 2), 25.5%.
